Tests used:
human mPGES-1 = human mPGES-1 (Homo sapiens (Human), UniProt O14684); assay: mPGES-1 inhibitory activity test; assay type: biochemical; settings: for inhibition at 0.01 µM: 10 nM test compound; for inhibition at 0.1 µM: 100 nM test compound
How it was run: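 PGE2 formation was quantified by HTRF and reported as percent inhibition at 10 and 100 nM compound or as IC50. The 60-second reaction at 4° C used 1 μM PGH2, after a 20-minute 4° C preincubation of compound (1% DMSO final) with glutathione-supplemented (2.5 mM, pH 7.4) microsomes. The microsomes were from transiently transfected CHO-K1 cells expressing human mPGES-1.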

human A549 cells = assay: Inhibition test of PGE2 production using human A549 cells; assay type: cell-based; settings: IL-1β stimulated A549 cells, 24 h, PGE2 by HTRF, read-out: A549 cell inhibition of PGE2 production IC50
How it was run: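 A549 cells were preincubated 60 min with compound in RPMI/3% FBS (0.1% DMSO final), then stimulated with IL-1β (5 ng/well) for 24 h at 37°C. PGE2 was measured by HTRF and PGF2a by EIA; activity was normalized to stimulated minus unstimulated controls, and IC50 derived.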

Chain of human mPGES-1 (O14684 whole entry): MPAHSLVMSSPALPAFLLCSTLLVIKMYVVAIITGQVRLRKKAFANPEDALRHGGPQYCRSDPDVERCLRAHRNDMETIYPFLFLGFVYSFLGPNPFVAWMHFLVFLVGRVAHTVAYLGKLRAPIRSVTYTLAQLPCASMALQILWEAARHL

inhibition at 0.01 µM (human mPGES-1)	inhibition at 0.1 µM (human mPGES-1)	IC50 (human A549 cells)	Compound
57%	85%	43.6 nM	Cn1ncc2c(NC(=O)c3cc(CNC(=O)C4CCCC4)ccc3Cl)cccc21 [Example 204, 2-Chloro-5-{[(cyclopentylcarbonyl)amino]methyl}-N-(1-methyl-1H-indazol-4-yl)benzamide]
59%	–	303 nM	COCC(=O)NCc1ccc(Cl)c(C(=O)Nc2cccc3c2cnn3C)c1 [Example 207, 2-Chloro-5-{[(methoxyacetyl)amino]methyl}-N-(1-methyl-1H-indazol-4-yl)benzamide]
63%	68%	799 nM	Cn1ncc2c(NC(=O)c3cc(CNS(=O)(=O)C4CC4)ccc3Cl)cccc21 [Example 208, 2-Chloro-5-{[(cyclopropylsulfonyl)amino]methyl}-N-(1-methyl-1H-indazol-4-yl)benzamide]
76%	90%	38.4 nM	Cn1ncc2c(NC(=O)c3cc(CNC(=O)C(C)(C)C)ccc3C(F)(F)F)cccc21 [Example 209, 5-{[(2,2-Dimethylpropanoyl)amino]methyl}-N-(1-methyl-1H-indazol-4-yl)-2-(trifluoromethyl)benzamide]
64%	–	379 nM	CCn1ncc2c(NC(=O)c3cc(CNC(=O)CC(C)(C)C)ccc3Cl)cccc21 [Example 210, 2-Chloro-5-{[(3,3-dimethylbutanoyl)amino]methyl}-N-(1-ethyl-1H-indazol-4-yl)benzamide]
84%	–	65.8 nM	CCn1ncc2c(NC(=O)c3cc(CNC(=O)C4CCCC4)ccc3Cl)cccc21 [Example 211, 2-Chloro-5-{[(cyclopentylcarbonyl)amino]methyl}-N-(1-ethyl-1H-indazol-4-yl)benzamide]
71%	–	17.3 nM	CCn1ncc2c(NC(=O)c3cc(CNC(=O)C4(C(F)(F)F)CC4)ccc3Cl)cccc21 [Example 212, 2-Chloro-N-(1-ethyl-1H-indazol-4-yl)-5-[({[1-(trifluoromethyl)cyclopropyl]carbonyl}amino)methyl]benzamide]
74%	93%	1 nM	O=C(Nc1cccc2c1cnn2-c1cccc(C(F)(F)F)c1)c1cc(CNC(=O)C2CCCC2)ccc1Cl [Example 219, 2-Chloro-5-{[(cyclopentylcarbonyl)amino]methyl}-N-{1-[3-(trifluoromethyl)phenyl]-1H-indazol-4-yl}benzamide]
65%	100%	2.6 nM	O=C(Nc1cccc2c1cnn2-c1cccc(C(F)(F)F)c1)c1cc(CNC(=O)C2(O)CC2)ccc1Cl [Example 221, 2-Chloro-5-({[(1-hydroxycyclopropyl)carbonyl]amino}methyl)-N-{1-[3-(trifluoromethyl)phenyl]-1H-indazol-4-yl}benzamide]
61%	–	3.3 nM	COCC(=O)NCc1ccc(Cl)c(C(=O)Nc2cccc3c2cnn3-c2cccc(C(F)(F)F)c2)c1 [Example 222, 2-Chloro-5-{[(methoxyacetyl)amino]methyl}-N-{1-[3-(trifluoromethyl)phenyl]-1H-indazol-4-yl}benzamide]
81%	–	10 nM	O=C(Nc1cccc2c1cnn2-c1nccs1)c1cc(CNC(=O)C2CCCC2)ccc1Cl [Example 227, 2-Chloro-5-{[(cyclopentylcarbonyl)amino]methyl}-N-[1-(1,3-thiazol-2-yl)-1H-indazol-4-yl]benzamide]
77%	–	12.9 nM	O=C(Nc1cccc2c1cnn2-c1nccs1)c1cc(CNC(=O)C2(C(F)(F)F)CC2)ccc1Cl [Example 228, 2-Chloro-N-[1-(1,3-thiazol-2-yl)-1H-indazol-4-yl]-5-[({[1-(trifluoromethyl)cyclopropyl]carbonyl}amino)methyl]benzamide]
53%	88%	6.1 nM	Cc1cc(-n2ncc3c(NC(=O)c4cc(CNC(=O)C5CCCC5)ccc4Cl)cccc32)ccn1 [Example 235, 2-Chloro-5-{[(cyclopentylcarbonyl)amino]methyl}-N-[1-(2-methylpyridin-4-yl)-1H-indazol-4-yl]benzamide]
67%	75%	299 nM	Cc1ccc(-n2ncc3c(NC(=O)c4cc(CNS(=O)(=O)C5CC5)ccc4Cl)cccc32)nn1 [Example 253, 2-Chloro-5-{[(cyclopropylsulfonyl)amino]methyl}-N-[1-(6-methylpyridazin-3-yl)-1H-indazol-4-yl]benzamide]

Second part, the molecule before the results:

Compound	inhibition at 0.01 µM (human mPGES-1)	inhibition at 0.1 µM (human mPGES-1)	IC50 (human A549 cells)
CC(C)(C)C(=O)NCc1ccc(C(F)(F)F)c(C(=O)Nc2cccc3c2cnn3-c2ccc(OC(F)(F)F)cc2)c1 [Example 194, 5-{[(2,2-Dimethylpropanoyl)amino]methyl}-N-{1-[4-(trifluoromethoxy)phenyl]-1H-indazol-4-yl}-2-(trifluoromethyl)benzamide]	62%	83%	0.7 nM
CC(C)(C)C(=O)NCc1ccc(C(F)(F)F)c(C(=O)Nc2cccc3c2cnn3-c2cccc(OC(F)(F)F)c2)c1 [Example 195, 5-{[(2,2-Dimethylpropanoyl)amino]methyl}-N-{1-[3-(trifluoromethoxy)phenyl]-1H-indazol-4-yl}-2-(trifluoromethyl)benzamide]	65%	84%	0.8 nM
CC(C)(C)C(=O)NCc1ccc(C(F)(F)F)c(C(=O)Nc2cccc3c2cnn3-c2ccc(C(F)(F)F)nc2)c1 [Example 196, 5-{[(2,2-Dimethylpropanoyl)amino]methyl}-2-(trifluoromethyl)-N-{1-[6-(trifluoromethyl)pyridin-3-yl]-1H-indazol-4-yl}benzamide]	60%	78%	2 nM
Cc1ccc(-n2ncc3c(NC(=O)c4cc(CNC(=O)C(C)(C)C)ccc4C(F)(F)F)cccc32)cc1Cl [Example 200, N-[1-(3-chloro-4-methylphenyl)-1H-indazol-4-yl]-5-{[(2,2-dimethylpropanoyl)amino]methyl}-2-(trifluoromethyl)benzamide]	69%	103%	0.9 nM
CC(C)(C)C(=O)NCc1ccc(C(F)(F)F)c(C(=O)Nc2cccc3c2cnn3-c2cscn2)c1 [Example 201, 5-{[(2,2-Dimethylpropanoyl)amino]methyl}-N-[1-(1,3-thiazol-4-yl)-1H-indazol-4-yl]-2-(trifluoromethyl)benzamide]	85%	97%	20.1 nM
CC(C)n1ncc2c(NC(=O)c3cc(CNC(=O)C(C)(C)C)ccc3C(F)(F)F)cccc21 [Example 202, 5-{[(2,2-Dimethylpropanoyl)amino]methyl}-N-[1-(propan-2-yl)-1H-indazol-4-yl]-2-(trifluoromethyl)benzamide]	59%	79%	20.2 nM
CCn1ncc2c(NC(=O)c3cc(CNC(=O)C(C)(C)C)ccc3C(F)(F)F)cccc21 [Example 217, 5-{[(2,2-Dimethylpropanoyl)amino]methyl}-N-(1-ethyl-1H-indazol-4-yl)-2-(trifluoromethyl)benzamide]	79%	80%	14.7 nM
O=C(Nc1cccc2c1cnn2-c1cccc(C(F)(F)F)c1)c1cc(CNC(=O)C2(C(F)(F)F)CC2)ccc1Cl [Example 220, 2-Chloro-5-[({[1-(trifluoromethyl)cyclopropyl]carbonyl}amino)methyl]-N-{1-[3-(trifluoromethyl)phenyl]-1H-indazol-4-yl}benzamide]	74%	90%	< 1 nM
CC(C)(CO)C(=O)NCc1ccc(Cl)c(C(=O)Nc2cccc3c2cnn3-c2cccc(C(F)(F)F)c2)c1 [Example 223, 2-Chloro-5-{[(3-hydroxy-2,2-dimethylpropanoyl)amino]methyl}-N-{1-[3-(trifluoromethyl)phenyl]-1H-indazol-4-yl}benzamide]	78%	–	0.6 nM
O=C(Nc1cccc2c1cnn2-c1cccc(C(F)(F)F)c1)c1cc(CNS(=O)(=O)C2CC2)ccc1Cl [Example 224, 2-Chloro-5-{[(cyclopropylsulfonyl)amino]methyl}-N-{1-[3-(trifluoromethyl)phenyl]-1H-indazol-4-yl}benzamide]	83%	–	< 1 nM
Cc1cncc(-n2ncc3c(NC(=O)c4cc(CNC(=O)C(C)(C)C)ccc4C(F)(F)F)cccc32)c1 [Example 246, 5-{[(2,2-dimethylpropanoyl)amino]methyl}-N-[1-(5-methylpyridin-3-yl)-1H-indazol-4-yl]-2-(trifluoromethyl)benzamide]	78%	89%	3.5 nM
Cc1ccc(-n2ncc3c(NC(=O)c4cc(CNC(=O)CC(C)(C)C)ccc4Cl)cccc32)cc1C(F)(F)F [Example 254, 2-Chloro-5-{[(3,3-dimethylbutanoyl)amino]methyl}-N-{1-[4-methyl-3-(trifluoromethyl)phenyl]-1H-indazol-4-yl}benzamide]	100%	99%	0.7 nM
Cc1ccc(-n2ncc3c(NC(=O)c4cc(CNC(=O)C5(C(F)(F)F)CC5)ccc4Cl)cccc32)cc1C(F)(F)F [Example 256, 2-Chloro-N-{1-[4-methyl-3-(trifluoromethyl)phenyl]-1H-indazol-4-yl}-5-[({[1-(trifluoromethyl)cyclopropyl]carbonyl}amino)methyl]benzamide]	88%	98%	0.3 nM

Source: US20250059172A1, “INDAZOLE COMPOUND AND PHARMACEUTICAL” (NIPPON SHINYAKU CO., LTD., priority 2021, published 2025)
